Laboratory results as given in patent US20040133038A1, “Method of purifying aromatic polycarboxylic acid” (priority 2001, published 2004).
Like-named read-outs stand apart in the source and are kept apart here. Each block holds one compound with its values, some of them ahead of it.

Test: solubility in water
Assay type: physicochemical

SMILES: O=C(O)c1ccc2cc(C(=O)O)ccc2c1 [naphthalenedicarboxylic acid]
solubility in water relative to that of terephthalic acid (fraction of the solubility of terephthalic acid): 1/10

SMILES: O=C(O)c1ccc2cc(C(=O)O)ccc2c1 [2,6-naphthalenedicarboxylic acid]
amount dissolved in 600 g of water, calculated from the solubility: 36 g

solubility in water relative to that of terephthalic acid: 1/10
SMILES: O=C(O)c1ccc(-c2ccc(C(=O)O)cc2)cc1 [biphenyldicarboxylic acid]

solubility in water: 6.5 g/100 g
amount dissolved in 600 g of water, calculated from the solubility (600 g of water, 230° C.): 39 g
SMILES: O=C(O)c1ccc(C(=O)O)cc1 [terephthalic acid]
